Experimental data published in patent publication US20070231260A1, “Transporter-targeted methods of diagnosis and treatment” (priority 2005, published 2007).

Test system: cells that overexpress MCT1
Test: Cytotoxicity (GI50) of bromopyruvate in cells not expressing MCT1 (-TET) and induced to express MCT1 (+TET)
Type: cell-based
Settings: GI50, +TET vs -TET cells; FIG. 2

O=C(O)C(=O)CBr [bromopyruvate, Bromopyruvate]
fold higher toxicity to cells that overexpress MCT1: more than 20 times
